Assay results from patent US20060276525A1, “Processes of preparing highly pure telmisartan form A, suitable for pharmaceutical compositions” (priority 2005, published 2006).
Like-named read-outs stand apart in the source and are kept apart here.

Legend:
Format in all cases: physicochemical
[1] = Average particle size measurement (Malvern Mastersizer 2000, particle size distribution); conditions: for Particle size distribution D(v,0.1) / Particle size distribution D(v,0.2) / Particle size distribution D(v,0.8) / Particle size distribution D(v,0.95) / Particle size distribution D(v,0.98) / Particle size distribution D(v,1.0) / Particle size distribution D(v,0.5) / Particle size distribution D(v,0.9): carrier liquid water; for Particle size distribution D(v,0.5): size for 50% of the particles; for Particle size distribution D(v,0.9): size for 90% of the particles; for D(V, 0.9): in µm (unit assumed)
Method: Average Particle Size Measurement: Particle size was measured by Malvern model Mastersizer 2000, equipped with Malvern Hydro G circulation cell. Carrier: liquid:water. System description: Measuring range: from 0.02-2000 μm. Accuracy: 1% on the Dv50 Light sources: Red light-helium neon laser. Blue light-solid state light source.

[2] = Bulk density (tapped density tester VanKel 50-2300)
Method: Bulk Density: Bulk density was measured using tapped density tester dual-platform model VanKel 50-2300 (Varian Inc.). System specifications. Speed: nominal rate of 300 taps per minute, Accuracy: Actual setting±1 tap, Drop height: 14±2 mm. Platform rotation: 5-15 rotations/minute.

[3] = Flowability / electrostatic charging of the ground material; conditions: ground by conventional mill
[4] = listed as Telmisartan form A, obtained by crystallization from DMSO
[5] = listed as Telmisartan form A, obtained by crystallization from water
[6] = Sonicated material with no milling

Particle size distribution D(v,0.1) [1]	Particle size distribution D(v,0.2) [1]	Particle size distribution D(v,0.8) [1]	Particle size distribution D(v,0.95) [1]	Particle size distribution D(v,0.98) [1]	Particle size distribution D(v,1.0) [1]	Particle size distribution D(v,0.5) [1]	Particle size distribution D(v,0.9) [1]	SMILES	also measured
1.60 μ	2.25 μ	11.46 μ	22.21 μ	29.03 μ	52.87 μ	4.98 μ	16.78 μ	CCCc1nc2c(C)cc(-c3nc4ccccc4n3C)cc2n1Cc1ccc(-c2ccccc2C(=O)O)cc1 [Example 1, Telmisartan]	Particle size distribution D(v,0.5) [1, 4]: about 5 μ; Particle size distribution D(v,0.9) [1, 4]: about 17 μ; Bulk density [2]: about 0.3 g/ml; Bulk density [2, 4]: about 0.3 g/ml; Flowability of ground material [3]: free flowing crystalline powder that does not tend to gain electrostatic charge upon grinding
0.35 μ	0.85 μ	11.90 μ	23.03 μ	30.08 μ	52.871 μ	4.33 μ	17.48 μ	CCCc1nc2c(C)cc(-c3nc4ccccc4n3C)cc2n1Cc1ccc(-c2ccccc2C(=O)O)cc1 [Example 2, Telmisartan]	Particle size distribution D(v,0.5) [1, 5]: about 4.3 μ; Particle size distribution D(v,0.9) [1, 5]: about 17.5 μ; Bulk density [2, 5]: about 0.22 g/ml
1.08 μ	1.45 μ	6.04 μ	12.07 μ	16.13 μ	33.57 μ	2.83 μ	8.97 μ	CCCc1nc2c(C)cc(-c3nc4ccccc4n3C)cc2n1Cc1ccc(-c2ccccc2C(=O)O)cc1 [Example 4, Telmisartan]	Particle size distribution D(v,0.5) ([1]; listed as Telmisartan form A, obtained by crystallization from DMF): less than 3 μ
–	–	–	–	–	–	–	–	CCCc1nc2c(C)cc(-c3nc4ccccc4n3C)cc2n1Cc1ccc(-c2ccccc2C(=O)O)cc1 [Example 7, Telmisartan]	D(V, 0.1) ([1]; Ground material): 0.7 µm; D(V, 0.5) ([1]; Ground material): 3.3 µm; D(V, 0.9) ([1]; Ground material): 19.1; D(V, 0.1) [1, 6]: 0.8 µm; D(V, 0.5) [1, 6]: 8.1 µm; D(V, 0.9) [1, 6]: 24.7; D(V, 0.1) ([1]; Un-milled material): 51.4 µm; D(V, 0.5) ([1]; Un-milled material): 245 µm; D(V, 0.9) ([1]; Un-milled material): 578.2
